Here are results for 35 compounds from patent US10011573B2, “Human androgen receptor DNA-binding domain (DBD) compounds as therapeutics and methods for their use” (The University of British Columbia, priority 2014, dated 2018).

The subject of assay [1] is PSA. The assay is described as follows: Prostate-specific antigen (PSA) assay, secreted PSA from the eGFP assay plates. The format is cell-based, human. On the procedure: 3. Prostate-specific antigen (PSA) assay: The evaluation of PSA levels secreted into the media was performed in parallel to the eGFP assay using the same plates. After cells were incubated for 3 days, 150 μl of the media was taken from each well, and added to 150 μl of PBS.

For assay [2], the target named is T1, androgen receptor (AR) (Homo sapiens, UniProt P10275, T878A).
T1 sequence (P10275 1-920 T878A): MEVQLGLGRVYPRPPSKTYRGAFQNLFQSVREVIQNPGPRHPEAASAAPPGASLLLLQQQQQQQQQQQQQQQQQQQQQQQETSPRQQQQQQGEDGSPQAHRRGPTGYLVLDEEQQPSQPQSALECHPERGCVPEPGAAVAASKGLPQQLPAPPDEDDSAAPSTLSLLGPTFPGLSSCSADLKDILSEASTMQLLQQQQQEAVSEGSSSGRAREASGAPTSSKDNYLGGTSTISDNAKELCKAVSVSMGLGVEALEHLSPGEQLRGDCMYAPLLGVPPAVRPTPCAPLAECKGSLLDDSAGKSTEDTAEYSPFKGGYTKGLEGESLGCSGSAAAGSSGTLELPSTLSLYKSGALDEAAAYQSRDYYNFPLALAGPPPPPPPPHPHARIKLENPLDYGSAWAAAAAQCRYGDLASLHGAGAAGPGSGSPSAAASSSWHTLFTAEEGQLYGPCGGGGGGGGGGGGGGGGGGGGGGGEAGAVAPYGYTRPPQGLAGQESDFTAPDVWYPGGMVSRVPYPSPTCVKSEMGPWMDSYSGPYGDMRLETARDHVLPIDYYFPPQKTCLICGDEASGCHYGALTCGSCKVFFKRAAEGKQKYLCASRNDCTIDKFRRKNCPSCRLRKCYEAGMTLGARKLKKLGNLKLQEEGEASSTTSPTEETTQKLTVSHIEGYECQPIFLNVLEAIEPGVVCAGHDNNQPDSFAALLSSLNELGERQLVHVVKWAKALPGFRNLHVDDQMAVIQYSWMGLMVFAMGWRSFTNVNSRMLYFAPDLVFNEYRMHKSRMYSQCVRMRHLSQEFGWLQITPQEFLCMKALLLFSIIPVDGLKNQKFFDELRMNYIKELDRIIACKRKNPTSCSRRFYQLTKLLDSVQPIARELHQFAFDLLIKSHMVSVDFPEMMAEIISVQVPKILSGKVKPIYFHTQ
As to the kind of experiment: eGFP cellular AR transcription assay (LNCaP eGFP cells, LN-ARR2PB-eGFP). Conditions: for inhibition at 3 µM: LNCaP, read-out: % Inhibition (3 μM); for anti-AR activity (AR transcriptional inhibition) in words: LNCaP (T877A AR).

The target of assay [3] is T2, AR hormone binding site (recombinant wild type LBD) (Rattus norvegicus, UniProt P15207).
T2 construct: displace DHT from the ABS site of recombinant wild type LBD
T2 sequence (P15207 651-882 limits assumed): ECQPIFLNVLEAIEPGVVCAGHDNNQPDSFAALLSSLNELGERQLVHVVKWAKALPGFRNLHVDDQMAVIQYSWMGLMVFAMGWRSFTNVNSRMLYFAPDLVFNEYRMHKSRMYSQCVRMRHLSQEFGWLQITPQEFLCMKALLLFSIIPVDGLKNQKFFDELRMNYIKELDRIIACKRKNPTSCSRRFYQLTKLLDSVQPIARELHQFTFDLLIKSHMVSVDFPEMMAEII
As to the kind of experiment: Androgen displacement assay (Polar Screen Androgen Receptor Competitor Green Assay Kit). As to conditions: fluorescence polarization. On the procedure: 5. Androgen displacement assay: The androgen displacement was assessed with the Polar Screen Androgen Receptor Competitor Green Assay Kit as per the instructions of the manufacturer (Lack, Axerio-Cilies et al. 2011).
The ability of the above chemicals to displace DHT from the ABS site of recombinant wild type LBD was measured using a fluorescent polarization assay (PolarScreen™, Life Technologies) at various concentrations.
(In fluorescence polarisation assays a small probe gives low polarisation when free and higher when bound to something large.)

For assay [4], the system named is AR target genes. As to the kind of experiment: Microarray genetic profile in LNCaP cells. Conditions: 1 nM R1881, 24 h.
Setting [5] is: eGFP IC50 (μM), LNCaP eGFP cells.
[6] abbreviates: eGFP IC50, LNCaP eGFP cells, 0.1 nM R1881.

Read-outs that look alike come from different tables or passages of the source.

Take `c1ccc2nc(-c3ccncc3)ccc2c1` [Compound 14320]: the IC50 (as a rule, the concentration that inhibits the measured activity by half) in assay [1] (Homo sapiens, secreted PSA) amounted to 2260 nM; in assay [2] (setting [5]), 4.2 µM. The inhibition (as a rule, the change of the read-out against control, counted positive when it falls) at 3 µM in assay [2] is 62%.
The corresponding values for `Cc1ccc2sc(N3CCOCC3)nc2c1C` [Compound 14332] are 58 nM, 0.068 µM and 91.7%.
Turning to `c1ccc(-c2csc(-c3ccncc3)n2)cc1` [Compound 14352], the 50% inhibitory concentration (IC50) in assay [1] (Series 1) stood at 630 nM; in assay [2] (read-out: eGFP IC50) it was 1.19 µM.
As to `Oc1cc(F)ccc1-c1csc(N2CCOCC2)n1` [Compound 14364], the IC50 stood at 810 nM in assay [1] (Series 1) and 1.22 µM in assay [2] (read-out: eGFP IC50). Further, the “% Inhibition (3 μM)” value in assay [2] turned out to be 91.26%.
For `Oc1c(F)cccc1-c1csc(N2CCOCC2)n1` [Compound 14365], the concentration for half-maximal inhibition (IC50) is 160 nM in assay [1] (Homo sapiens, Series 1) and 0.27 µM in assay [2] (eGFP IC50 (μM), Series 1). The inhibition at 3 µM in assay [2] is 97.4%.
The corresponding values for `COc1cc(F)ccc1-c1csc(N2CCOCC2)n1` [Compound 14367] are 230 nM, 0.3 µM and 103%.
Regarding `COc1c(-c2csc(N3CCOCC3)n2)ccc(F)c1F` [Compound 14370], the IC50 in assay [1] (Homo sapiens, Series 1) was 250 nM; in assay [2] (eGFP IC50 (μM), Series 1) it was 0.19 µM. In assay [2], the “anti-AR activity (AR transcriptional inhibition) in words” value is given as “improved activities”. For the same compound, the inhibition at 3 µM in assay [2] stood at 107%.
As for `Oc1c(-c2csc(N3CCOCC3)n2)ccc(F)c1F` [Compound 14371], the IC50 in assay [1] (Homo sapiens, Series 1) stood at 700 nM; in assay [2] (eGFP IC50 (μM), Series 1), 0.8 µM. Further, the inhibition at 3 µM in assay [2] is 98.9%.
On to `Oc1ccc2nc(N3CCOCC3)sc2c1` [Compound 14378], for which the IC50 in assay [1] (Homo sapiens, secreted PSA) was 8080 nM; in assay [2] (setting [5]), 7.41 µM. In assay [2], the inhibition at 3 µM was determined as 57.5%.
The corresponding values for `c1ccc(-c2ccc3ccccc3n2)cc1` [Compound 14390] are 1230 nM, 2.6 µM and 80.2%.
The corresponding values for `CCC1CN(c2nc3ccccc3s2)CCO1` (stereo not drawn) [Compound 14392] are 10400 nM, 7.07 µM and 55.5%.
The corresponding values for `N#Cc1cc(N2CCOCC2)nc2ccccc12` [Compound 14395] are 540 nM, 0.54 µM and 103%.
For `O=[N+]([O-])c1cccc2ccc(N3CCOCC3)nc12` [Compound 14398], the IC50 in assay [1] (Homo sapiens, secreted PSA) was 850 nM; in assay [2] (setting [5]) it was 0.82 µM.
With `Cc1ncn(-c2csc(N3CCOCC3)n2)c1C` [Compound 14399], the IC50 in assay [1] (Series 1) was determined as 2420 nM; in assay [2] (read-out: eGFP IC50), 3.65 µM.
Take `Oc1cccc2ccc(N3CCOCC3)nc12` [Compound 14400]: the IC50 in assay [1] (Homo sapiens, secreted PSA) was 380 nM; in assay [2] (setting [5]), 0.46 µM. Also, the inhibition at 3 µM in assay [2] came to 79%.
The corresponding values for `c1ccc2nc(N3CCOCC3)ccc2c1` [Compound 14401] are 690 nM, 0.85 µM and 76%.
Turning to `Clc1ncn(-c2csc(N3CCOCC3)n2)c1Cl` [Compound 14402, 4-(4-(4,5-dichloro-1H-imidazol-1-yl)thiazol-2-yl)morpholine], the IC50 in assay [1] (Homo sapiens, Series 1) is 570 nM; in assay [2] (eGFP IC50 (μM), Series 1) it was 0.66 µM.
The corresponding values for `Cc1scc(-c2csc(N3CCOCC3)n2)c1C` [Compound 14408, 4-(4-(4,5-dimethylthiophen-3-yl)thiazol-2-yl)morpholine] are 430 nM and 0.42 µM.
`Fc1ccc2sc(N3CCOCC3)nc2c1F` [Compound 14409]: the half-inhibitory concentration (IC50) in assay [1] (Homo sapiens, secreted PSA) was 340 nM; in assay [2] (setting [5]), 0.36 µM. In assay [2], the inhibition at 3 µM is 86%.
In the case of `c1cc(-c2csc(N3CCOCC3)n2)ccn1` [Compound 14435], the “Androgen Displacement IC50” value in assay [3] is reported as “No displacement”. The “anti-AR activity (AR transcriptional inhibition) in words” value in assay [2] was “maintained good potency”. In addition, the partial agonistic effect result in assay [2] (LNCaP eGFP cells) was “no undesired partial agonistic effect”. For the same compound, the IC50 was found to be 2.61 µM in assay [2] (eGFP IC50 (μM), Series 1) and 3.87 ± 1.26 µM in assay [2] (setting [6]).
The corresponding values for `c1ccc(-c2csc(N3CCOCC3)n2)nc1` [Compound 14436] are “No displacement”, “maintained good potency”, “no undesired partial agonistic effect”, 2.51 µM and 4.53 ± 0.26 µM.
Consider `c1cncc(-c2csc(-c3c[nH]c4ccccc34)n2)c1` [Compound 14442], for which the IC50 in assay [1] (Homo sapiens, Series 1) is 3050 nM; in assay [2] (eGFP IC50 (μM), Series 1), 5.39 µM. For the same compound, the inhibition at 3 µM in assay [2] is 86.3%.
For the compound `Brc1cn(-c2csc(N3CCOCC3)n2)cn1` [Compound 14447, 4-(4-(4-bromo-1H-imidazol-1-yl)thiazol-2-yl)morpholine], the IC50 in assay [1] (Homo sapiens, Series 1) is 1740 nM; in assay [2] (eGFP IC50 (μM), Series 1), 2.1 µM.
The corresponding values for `Clc1cn(-c2csc(N3CCOCC3)n2)cn1` [Compound 14448, 4-(4-(4-chloro-1H-imidazol-1-yl)thiazol-2-yl)morpholine] are 720 nM and 0.96 µM.
The corresponding values for `Clc1c(Br)ncn1-c1csc(N2CCOCC2)n1` [Compound 14450, 4-(4-(4-bromo-5-chloro-1H-imidazol-1-yl)thiazol-2-yl)morpholine] are 1280 nM and 1.3 µM.
The corresponding values for `Clc1ncn(-c2csc(N3CCOCC3)n2)c1Br` [Compound 14451, 4-(4-(5-bromo-4-chloro-1H-imidazol-1-yl)thiazol-2-yl)morpholine] are 440 nM and 0.33 µM.
In the case of `Brc1ccc2nc(N3CCOCC3)ccc2c1` [Compound 14452], the IC50 in assay [1] (Homo sapiens, secreted PSA) came out at 170 nM; in assay [2] (setting [5]), 0.11 µM.
`Nc1ccccc1-c1nc(-c2cccnc2)cs1` [Compound 14463]: the IC50 was 2120 nM in assay [1] (Homo sapiens, Series 1) and 2.3 µM in assay [2] (eGFP IC50 (μM), Series 1).
The corresponding values for `Ic1ncn(-c2csc(N3CCOCC3)n2)c1I` [Compound 14464, 4-(4-(4,5-diiodo-1H-imidazol-1-yl)thiazol-2-yl)morpholine] are 1810 nM and 1.5 µM.
The corresponding values for `Clc1ncn(-c2csc(N3CCOCC3)n2)c1I` [Compound 14468, 4-(4-(4-chloro-5-iodo-1H-imidazol-1-yl)thiazol-2-yl)morpholine] are 4020 nM and 2.44 µM.
For `c1ccc2c(-c3csc(-c4c[nH]c5ccccc45)n3)c[nH]c2c1` [Compound 14471], the IC50 is 1410 nM in assay [1] (Homo sapiens, Series 1) and 1.02 µM in assay [2] (eGFP IC50 (μM), Series 1).
Regarding `c1csc(-c2nc(-c3c[nH]c4ccccc34)cs2)c1` [Compound 14481], the IC50 in assay [1] (Homo sapiens, Series 1) was determined as 1410 nM; in assay [2] (eGFP IC50 (μM), Series 1), 2.18 µM. The inhibition at 3 µM in assay [2] was 80.5%.
Regarding `N#Cc1ccc(-c2nc3ccccc3s2)cc1` [Compound 14489], the IC50 in assay [1] (Homo sapiens, secreted PSA) was 1060 nM; in assay [2] (setting [5]) it was 1.79 µM. The inhibition at 3 µM in assay [2] was 82.5%.
Consider `O=C(O)c1sc(N2CCOCC2)nc1-c1ccccc1` [Compound 14506], for which the half-maximal inhibitory concentration (IC50) stood at 4500 nM in assay [1] (Series 1) and 7 µM in assay [2] (read-out: eGFP IC50).
Regarding `C[C@]1(O)CC[C@H]2[C@@H]3CCC4=CC(=O)CCC4=C3C=C[C@@]21C` [Compound R1881, R1881, reference compound], in assay [4], the “FKBP5 gene expression fold change, DMSO+R1881 against DMSO-R1881” value was found to be 1.61; the “KLK2 gene expression fold change, DMSO+R1881 against DMSO-R1881” value came out at 3.60; the “KLK3 (PSA) gene expression fold change, DMSO+R1881 against DMSO-R1881” value is 2.42; the “TMPRSS2 gene expression fold change, DMSO+R1881 against DMSO-R1881” value amounted to 2.25.
